Earlier results as cited in patent US20070293552A1, “ANTIHYPERTENSIVE THERAPY METHOD” (priority 2006, published 2007).

Target: T1, ETA (Homo sapiens, UniProt P25101)
T1 sequence (P25101 21-427): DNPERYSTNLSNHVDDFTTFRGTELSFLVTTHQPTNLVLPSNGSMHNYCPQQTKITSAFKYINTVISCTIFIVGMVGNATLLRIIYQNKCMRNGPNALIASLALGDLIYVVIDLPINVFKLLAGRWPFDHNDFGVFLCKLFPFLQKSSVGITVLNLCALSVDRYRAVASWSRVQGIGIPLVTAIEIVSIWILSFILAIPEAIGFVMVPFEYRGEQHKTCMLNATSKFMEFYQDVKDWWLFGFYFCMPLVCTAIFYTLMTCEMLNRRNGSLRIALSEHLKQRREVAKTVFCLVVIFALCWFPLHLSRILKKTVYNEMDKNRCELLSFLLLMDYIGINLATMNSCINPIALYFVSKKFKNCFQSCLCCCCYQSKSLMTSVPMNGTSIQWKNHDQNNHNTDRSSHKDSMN
Conditions: selectivity for ETA over ETB; reported by Wu et al. (2004) J. Med. Chem. 47, 1969-1986

ETA/ETB selectivity factor: 441×10^3
Compound: CC(=O)c1cc(C)cc(C)c1NC(=O)c1sccc1S(=O)(=O)Nc1onc(C)c1C [TBC3711, N-(2-acetyl-4,6-dimethylphenyl)-3-(3,4-dimethylisoxazol-5-ylsulfamoyl)-thiophene-2-carboxamide]
